This assay has as its target T1, indoleamine 2,3-dioxygenase (IDO) (Homo sapiens, UniProt P14902).
T1 construct: host or cells: HeLa cells stimulated with IFNγ (25 ng/mL)
Briefly: HeLa cell-based indoleamine 2,3-dioxygenase (IDO) assay (kynurenine production). The following applies: HeLa cells, IFNγ 25 ng/mL, 48 hour incubation, absorbance at 480 nm. As for the experimental part: Assessment of inhibitor activity in HeLa cell-based indoleamine 2,3-dioxygenase (IDO) assay:
HeLa (ATCC® CCL-2) cells were obtained from the ATCC® and cultured in Dulbecco's Modified Eagle Medium supplemented with 4.5 g/L glucose, […] (#10-013-CV, Corning), 2 mM L-alanyl-L-glutamine dipeptide (#35050-061, Gibco), 100U/mL penicillin, 100 μg/mL streptomycin (#SV30010, HyClone) and 10% fetal bovine serum (#SH30071.03 HyClone). Cells were maintained in a humidified incubator at 37° C. in 5% CO2.
IDO activity was assessed as a function of kynurenine production as follows: HeLa cells were seeded in a 96-well culture plate at a density of 5,000 cells/well and allowed to equilibrate overnight. After 24 hours, the media was aspirated and replaced with media containing IFNγ (#285-IF/CF, R&D Systems) at a final concentration of 25 ng/mL. A serial dilution of each test compound was added to the cells in a total volume of 200 μL of culture medium. After a further 48 hour incubation, 170 μL of supernatant was transferred from each well to a fresh 96-well plate. 12.1 μL of 6.1N trichloroacetic acid (#T0699, Sigma-Aldrich) was added to each well and mixed, followed by incubation at 65° C. for 20 minutes to hydrolyze N-formylkynurenine, the product of indoleamine 2,3-dioxygenase, to kynurenine. The reaction mixture was then centrifuged for 10 mins at 500×g to sediment the precipitate. 100 μL of the supernatant was transferred from each well to afresh 96-well plate. 100 μl of 2% (w/v) p-dimethylaminobenzaldehyde (#15647-7, Sigma-Aldrich) in acetic acid (#A6283, Sigma-Aldrich) was added to each well mixed and incubated at room temperature for 20 mins. Kynurenine concentrations were determined by measuring absorbance at 480 nm and calibrating against an L-kynurenine (#K8625, Sigma-Aldrich) standard curve using a SPECTRAMAX® M2e microplate reader (Molecular Devices). The percentage activity at each inhibitor concentration was determined and IC50 values assessed using nonlinear regression.

pIC50: −log10 of the molar value.

T1 sequence (P14902 whole entry): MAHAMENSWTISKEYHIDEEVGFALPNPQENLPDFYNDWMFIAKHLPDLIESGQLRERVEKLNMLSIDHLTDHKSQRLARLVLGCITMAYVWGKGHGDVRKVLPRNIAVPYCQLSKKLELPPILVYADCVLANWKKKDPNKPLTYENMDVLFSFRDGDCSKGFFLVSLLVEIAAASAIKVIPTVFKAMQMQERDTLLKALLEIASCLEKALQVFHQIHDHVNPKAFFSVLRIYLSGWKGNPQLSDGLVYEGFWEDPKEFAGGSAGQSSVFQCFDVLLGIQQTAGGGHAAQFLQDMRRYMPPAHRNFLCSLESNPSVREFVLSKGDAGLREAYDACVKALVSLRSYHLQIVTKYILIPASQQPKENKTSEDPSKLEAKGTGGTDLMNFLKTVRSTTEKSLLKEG

A word on the pIC50: it is the negative decadic logarithm of the IC50, by convention in mol/L. Higher therefore signals a low IC50. Regarding `C[C@@H](c1nc2cc(Cl)c(F)cc2[nH]1)[C@H]1CC[C@@H](c2ccnc3ccc(F)cc32)CC1` [Example 42], the pIC50 is 8.43.
As for `C[C@@H](c1cn2ncccc2n1)[C@H]1CC[C@@H](c2ccnc3ccc(F)cc32)CC1` [Example 31, 6-fluoro-4-((cis)-4-((R)-1-(imidazo[1,2-b]pyridazin-2-yl)ethyl)cyclohexyl)quinoline], the pIC50 is 6.22.
Regarding `CCOCC(c1nc2ccc(Cl)cc2[nH]1)[C@H]1CC[C@@H](c2ccnc(F)c2C)CC1` (single isomer, unassigned) [Example 25-2, 6-chloro-2-(2-ethoxy-1-((cis)-4-(2-fluoro-3-methylpyridin-4-yl)cyclohexyl)ethyl)-1H-benzo[d]imidazole], the pIC50 was 7.64.
As for `C[C@H]([C@H]1CC[C@@H](c2ccnc3ccc(F)cc32)CC1)n1cnc2ccccc2c1=O` [Example 28, 3-((R)-1-((cis)-4-(6-fluoroquinolin-4-yl)cyclohexyl)ethyl)quinazolin-4(3H)-one], the figure is 6.08.
Take `C[C@@H](c1nc2ccc(Cl)cc2c(=O)[nH]1)[C@H]1CC[C@@H](c2ccnc3ccc(F)cc32)CC1` [Example 29, 6-chloro-2-((R)-1-((cis)-4-(6-fluoroquinolin-4-yl)cyclohexyl)ethyl)quinazolin-4(3H)-one]: the pIC50 is 6.85.
The compound `CCC(c1nc2ncc(Cl)cc2[nH]1)[C@H]1CC[C@H](Oc2ccnc3ccccc23)CC1` (mixture of isomers) [Example 20, (±)-4-(((trans)-4-(1-(6-chloro-1H-imidazo[4,5-b]pyridin-2-yl)-3-propyl)cyclohexyl)oxy)quinoline] gave a pIC50 of 8.24.
In turn, `C[C@@H](c1nc2c(F)c(F)ccc2[nH]1)[C@H]1CC[C@@H](c2ccnc3ccc(F)cc32)CC1` [Example 41, 4-((1S,4s)-4-((R)-1-(4,5-difluoro-1H-benzo[d]imidazol-2-yl)ethyl)cyclohexyl)-6-fluoroquinoline] had a pIC50 of 8.47.
As for `Fc1ccc2nccc(C3CCC(C(CC(F)(F)F)c4nc5ccc(Cl)cc5[nH]4)CC3)c2c1` (racemic) [Example 33, (±)-Cis and trans-4-(4-(1-(6-chloro-1H-benzo[d]imidazol-2-yl)-3,3,3-trifluoropropyl)cyclohexyl)-6-fluoroquinoline], the figure is 8.12; as for `C[C@H](c1nc2ccc(Cl)cc2[nH]1)[C@H]1CC[C@@H](c2ccnc(C(F)(F)F)c2)CC1` (single isomer, unassigned) [Example 39-3, 6-chloro-2-(1-(4-(2-(trifluoromethyl)pyridin-4-yl)cyclohexyl)ethyl)-1H-benzo[d]imidazole], 6.93; as for `CCOCC(c1nc2ccc(Cl)cc2[nH]1)[C@H]1CC[C@@H](c2ccnc(F)c2C)CC1` (mixture of isomers) [Example 25, (±)-6-chloro-2-(2-ethoxy-1-((cis)-4-(2-fluoro-3-methylpyridin-4-yl)cyclohexyl)ethyl)-1H-benzo[d]imidazole], 7.35.
`CCC(c1nc2ncc(Cl)cc2[nH]1)[C@H]1CC[C@@H](c2ccnc3ccc(C(F)(F)F)cc32)CC1` (mixture of isomers) [Example 22, (±)-4-((cis)-4-(1-(6-chloro-1H-imidazo[4,5-b]pyridin-2-yl)propyl)cyclohexyl)-6-(trifluoromethyl)quinoline]: the pIC50 is 8.43.
For `CC(c1nc2ccc(Cl)cc2[nH]1)C1CCC(c2ccnc3ncccc23)CC1` (stereo not shown) [Example 35-1] the value was 6.00; for `C[C@@H](c1nc2cc(F)c(F)cc2[nH]1)[C@H]1CC[C@@H](c2ccnc3ccc(F)cc32)CC1` [Example 40], 8.57; for `COC(=O)c1ccc2[nH]c([C@H](C)[C@H]3CC[C@@H](c4ccnc5ccc(F)cc54)CC3)nc2c1` [Example 50, methyl 2-((R)-1-((1s,4S)-4-(6-fluoroquinolin-4-yl)cyclohexyl)ethyl)-1H-benzo[d]imidazole-5-carboxylate], 8.68.
In turn, `CCC(c1nc2ncc(Cl)cc2[nH]1)[C@H]1CC[C@@H](c2ccnc(F)c2C)CC1` (mixture of isomers) [Example 24, (±)-6-chloro-2-(1-((cis)-4-(2-fluoro-3-methylpyridin-4-yl)cyclohexyl)-3-propyl)-1H-imidazo[4,5-b]pyridine] showed a pIC50 of 8.12.
`CC[C@H](c1nc2ncc(Cl)cc2[nH]1)[C@H]1CC[C@@H](c2ccnc3ccc(F)cc32)CC1` (single isomer, unassigned) [Example 21-4, 4-(4-(1-(6-chloro-1H-imidazo[4,5-b]pyridin-2-yl)propyl)cyclohexyl)-6-fluoroquinoline] gave a pIC50 of 7.05.
`CCC(c1nc2ncc(Cl)cc2[nH]1)[C@H]1CC[C@@H](c2ccnc3ccc(C(F)(F)F)cc32)CC1` (single isomer, unassigned) [Example 22-1, 4-((cis)-4-(1-(6-chloro-1H-imidazo[4,5-b]pyridin-2-yl)propyl)cyclohexyl)-6-(trifluoromethyl)quinoline] gave a pIC50 of 8.62.
As for `CCC(c1nc2ccc(Cl)cc2[nH]1)[C@H]1CC[C@@H](c2ccnc(F)c2C)CC1` (single isomer, unassigned) [Example 23-2, 6-chloro-2-(1-((cis)-4-(2-fluoro-3-methylpyridin-4-yl)cyclohexyl)-3-propyl)-1H-benzo[d]imidazole], the figure is 8.49.
In turn, `CC[C@H](c1nc2ncc(Cl)cc2[nH]1)[C@H]1CC[C@@H](c2ccnc3ccc(F)cc32)CC1` (single isomer, unassigned) [Example 21-3, 4-(4-(1-(6-chloro-1H-imidazo[4,5-b]pyridin-2-yl)propyl)cyclohexyl)-6-fluoroquinoline] showed a pIC50 of 8.29.
As for `C[C@@H](c1nc2c(F)c(F)c(F)c(F)c2[nH]1)[C@H]1CC[C@@H](c2ccnc3ccc(F)cc32)CC1` [Example 43, 6-fluoro-4-((1S,4s)-4-((R)-1-(4,5,6,7-tetrafluoro-1H-benzo[d]imidazol-2-yl)ethyl)cyclohexyl) quinoline], the figure is 8.46.
`C[C@H](c1nc2ccc(Cl)cc2[nH]1)[C@H]1CC[C@@H](c2ccnc(C(F)(F)F)c2)CC1` (single isomer, unassigned) [Example 39-2, 6-chloro-2-(1-(4-(2-(trifluoromethyl)pyridin-4-yl)cyclohexyl)ethyl)-1H-benzo[d]imidazole] had a pIC50 of 7.12.
Regarding `C[C@@H](c1nc2cc(C(F)(F)F)ccc2[nH]1)[C@H]1CC[C@@H](c2ccnc3ccc(F)cc32)CC1` [Example 45, 6-fluoro-4-((1S,4s)-4-((R)-1-(5-(trifluoromethyl)-1H-benzo[d]imidazol-2-yl)ethyl)cyclohexyl) quinoline], the negative-log IC50 (pIC50) was 8.51.
Turning to `CCC(c1nc2ncc(Cl)cc2[nH]1)[C@H]1CC[C@@H](c2ccnc(F)c2C)CC1` (single isomer, unassigned) [Example 24-2, 6-chloro-2-(1-((cis)-4-(2-fluoro-3-methylpyridin-4-yl)cyclohexyl)-3-propyl)-1H-imidazo[4,5-b]pyridine], the pIC50 was 8.57.
Regarding `CCC(c1nc2ncc(Cl)cc2[nH]1)[C@H]1CC[C@H](Oc2ccnc3ccccc23)CC1` (single isomer, unassigned) [Example 20-1], the pIC50 is 8.22.
Compound `CC(c1nc2ccc(Cl)cc2[nH]1)C1CCC(c2ccnc3ncccc23)CC1` (mixture of isomers) [Example 34, (±)-Cis and trans-(4-(1-(6-chloro-1H-benzo[d]imidazol-2-yl)ethyl)cyclohexyl)-1,8-naphthyridine] showed a pIC50 of 7.17.
`CCC(c1nc2ncc(Cl)cc2[nH]1)[C@H]1CC[C@@H](c2ccnc(F)c2C)CC1` (single isomer, unassigned) [Example 24-1, 6-chloro-2-(1-((cis)-4-(2-fluoro-3-methylpyridin-4-yl)cyclohexyl)-3-propyl)-1H-imidazo[4,5-b]pyridine] gave a pIC50 of 6.43.
For `CCC(c1nc2ccc(Cl)cc2[nH]1)[C@H]1CC[C@@H](c2ccnc(F)c2C)CC1` (single isomer, unassigned) [Example 23-1, 6-chloro-2-(1-((cis)-4-(2-fluoro-3-methylpyridin-4-yl)cyclohexyl)-3-propyl)-1H-benzo[d]imidazole] the value was 6.00; for `C[C@@H](c1nc2cc(C(F)(F)F)cc(Cl)c2[nH]1)[C@H]1CC[C@@H](c2ccnc3ccc(F)cc32)CC1` [Example 46, 4-((1S,4s)-4-((R)-1-(7-chloro-5-(trifluoromethyl)-1H-benzo[d]imidazol-2-yl)ethyl)cyclohexyl)-6-fluoroquinoline], 7.91.

The values above are taken from patent publication US11337970B2, “Inhibitors of indoleamine 2,3-dioxygenase and methods of their use” (BRISTOL-MYERS SQUIBB COMPANY, priority 2016, dated 2022).
